Reference: patent US20090192147A1, “[a]-FUSED INDOLE COMPOUNDS, THEIR USE AS mTOR KINASE AND PI3 KINASE INHIBITORS, AND THEIR [sequence]” (Wyeth, priority 2008, published 2009)
Where two headings read alike, the source gives them in different places.

How the values were obtained:
human TOR (FLAG-TOR) = biological target: T1, human TOR (FLAG-TOR) (Homo sapiens, UniProt P42345); assay: mTOR kinase assay, purified enzyme, DELFIA format; assay type: biochemical; details: 100 μM ATP, His6-S6K substrate
T1 construct: FLAG

PI3K-gamma = PI3K-gamma (Homo sapiens, UniProt P48736); assay: Fluorescence polarization assay for PI3K; assay type: biochemical; details: 25 μM ATP, diC8-PI(4,5)P2 substrate; read-out: PI3 Kinase γ IC50
Chain of PI3K-gamma (P48736 whole entry): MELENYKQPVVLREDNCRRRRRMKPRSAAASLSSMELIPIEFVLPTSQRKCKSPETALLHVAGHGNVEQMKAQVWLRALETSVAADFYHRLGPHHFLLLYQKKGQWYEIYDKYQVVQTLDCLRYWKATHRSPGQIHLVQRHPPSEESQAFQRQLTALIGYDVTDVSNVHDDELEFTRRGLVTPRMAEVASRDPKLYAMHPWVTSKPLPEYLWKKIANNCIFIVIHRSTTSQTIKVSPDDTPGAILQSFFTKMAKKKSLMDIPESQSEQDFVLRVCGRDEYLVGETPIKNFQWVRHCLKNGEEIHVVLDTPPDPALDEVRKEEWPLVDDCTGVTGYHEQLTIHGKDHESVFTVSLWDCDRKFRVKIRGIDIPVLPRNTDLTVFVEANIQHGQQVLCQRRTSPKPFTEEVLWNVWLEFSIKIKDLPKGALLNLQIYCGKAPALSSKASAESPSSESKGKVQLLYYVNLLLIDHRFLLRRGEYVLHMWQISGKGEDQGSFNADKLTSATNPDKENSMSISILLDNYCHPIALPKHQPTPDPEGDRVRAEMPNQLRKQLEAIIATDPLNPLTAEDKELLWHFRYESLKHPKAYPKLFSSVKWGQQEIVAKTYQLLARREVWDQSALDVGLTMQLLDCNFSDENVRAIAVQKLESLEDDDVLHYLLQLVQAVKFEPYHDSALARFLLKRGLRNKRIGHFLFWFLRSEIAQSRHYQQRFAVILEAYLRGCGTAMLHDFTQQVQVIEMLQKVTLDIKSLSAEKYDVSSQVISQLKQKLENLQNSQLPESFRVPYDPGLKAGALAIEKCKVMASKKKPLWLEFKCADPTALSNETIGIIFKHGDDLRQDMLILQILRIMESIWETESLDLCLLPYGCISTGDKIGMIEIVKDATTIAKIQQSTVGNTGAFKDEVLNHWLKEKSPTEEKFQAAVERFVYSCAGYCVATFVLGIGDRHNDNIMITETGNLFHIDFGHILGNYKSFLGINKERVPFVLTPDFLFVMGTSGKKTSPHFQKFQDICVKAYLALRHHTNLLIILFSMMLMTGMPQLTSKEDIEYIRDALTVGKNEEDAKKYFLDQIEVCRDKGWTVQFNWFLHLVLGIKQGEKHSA
Procedure: (§1) Fluorescence Polarization Assay for PI3K
(§2) Reaction Buffer: 20 mM HEPES, pH 7.5, 2 mM MgCl2, 0.05% CHAPS; and 0.01% BME (added fresh) Stop/Detection Buffer: 100 mM HEPES, pH 7.5, 4 mM EDTA, 0.05% CHAPS; ATP 20 mM in water; PIP2 (diC8, Echelon, Salt Lake City Utah, cat# P-4508) 1 mM in water (MW=856.5); GST-GRP 1.75 mg/mL or 1.4 mg/mL in 10% glycerol; Red detector (TAMRA) 2.5 μM; Plate: Nunc 384 well black polypropylene fluorescence plate.
(§3) PI3-Kinase reactions were performed in […], pH 7, […], and 25 μM ATP, with diC8-PI(4,5)P2 (Echelon, Salt Lake City Utah) as substrate. Nunc 384 well black polypropylene fluorescent plates were used for PI3K assays. Reactions were quenched by the addition of EDTA to a final concentration of […]. Final reaction volumes were 10 μl. For evaluation of PI3K inhibitors, 5 ng of enzyme (PI3K-alpha, beta, gamma, or delta) and 2.5 μM of substrate was used per […] reaction volume, and inhibitor concentrations ranged from 100 pM to 20 μM; the final level of DMSO in reactions never exceeded 2%. Reactions were allowed to proceed for one hour at 25° C. After 1 hour, GST-tagged GRP1 (general receptor for phosphoinositides) PH domain fusion protein was added to a final concentration of 100 nM, and BODIPY-TMRI(1,3,4,5)P4 (Echelon) was also added to a final concentration of 5 nM. Final sample volumes were 25 μl with a final DMSO concentration of 0.8%. Assay Plates were read on PerkinElmer Envision plate readers with appropriate filters for Tamra [BODIPY-TMRI(1,3,4,5)P4]. Data obtained were used to calculate enzymatic activity and enzyme inhibition by inhibitor compounds.

PI3K-alpha = PI3K-alpha (Homo sapiens, UniProt P42336); assay: Fluorescence polarization assay for PI3K; assay type: biochemical; details: 25 μM ATP, diC8-PI(4,5)P2 substrate; read-out: PI3 Kinase α IC50
Chain of PI3K-alpha (P42336 whole entry, species assumed): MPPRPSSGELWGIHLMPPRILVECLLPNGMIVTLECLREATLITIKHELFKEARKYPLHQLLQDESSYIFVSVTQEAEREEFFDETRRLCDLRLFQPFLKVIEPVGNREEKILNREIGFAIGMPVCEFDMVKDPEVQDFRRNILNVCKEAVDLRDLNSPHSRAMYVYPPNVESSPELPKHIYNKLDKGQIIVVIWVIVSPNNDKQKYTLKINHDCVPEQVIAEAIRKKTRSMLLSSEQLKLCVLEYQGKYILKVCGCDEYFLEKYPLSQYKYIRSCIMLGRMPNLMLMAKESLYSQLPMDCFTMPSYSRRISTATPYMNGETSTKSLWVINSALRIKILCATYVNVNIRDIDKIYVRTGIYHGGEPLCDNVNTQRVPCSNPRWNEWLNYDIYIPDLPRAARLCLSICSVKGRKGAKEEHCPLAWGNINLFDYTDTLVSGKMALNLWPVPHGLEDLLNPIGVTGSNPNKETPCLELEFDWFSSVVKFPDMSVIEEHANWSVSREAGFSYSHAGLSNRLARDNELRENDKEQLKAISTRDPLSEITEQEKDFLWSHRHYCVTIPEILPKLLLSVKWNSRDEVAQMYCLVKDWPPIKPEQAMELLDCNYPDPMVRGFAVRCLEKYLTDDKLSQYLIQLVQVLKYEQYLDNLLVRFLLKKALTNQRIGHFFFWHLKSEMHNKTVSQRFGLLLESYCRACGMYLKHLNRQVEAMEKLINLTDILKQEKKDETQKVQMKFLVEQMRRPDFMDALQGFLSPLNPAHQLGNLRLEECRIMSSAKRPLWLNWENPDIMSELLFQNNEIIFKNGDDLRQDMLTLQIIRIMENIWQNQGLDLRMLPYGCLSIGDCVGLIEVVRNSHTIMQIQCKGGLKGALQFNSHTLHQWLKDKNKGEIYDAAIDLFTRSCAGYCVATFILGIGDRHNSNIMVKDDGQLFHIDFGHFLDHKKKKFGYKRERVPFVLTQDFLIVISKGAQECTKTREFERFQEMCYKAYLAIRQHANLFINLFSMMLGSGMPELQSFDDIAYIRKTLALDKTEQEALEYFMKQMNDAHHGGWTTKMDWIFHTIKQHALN
Chain of PI3K-alpha (P27986 whole entry partner, species assumed): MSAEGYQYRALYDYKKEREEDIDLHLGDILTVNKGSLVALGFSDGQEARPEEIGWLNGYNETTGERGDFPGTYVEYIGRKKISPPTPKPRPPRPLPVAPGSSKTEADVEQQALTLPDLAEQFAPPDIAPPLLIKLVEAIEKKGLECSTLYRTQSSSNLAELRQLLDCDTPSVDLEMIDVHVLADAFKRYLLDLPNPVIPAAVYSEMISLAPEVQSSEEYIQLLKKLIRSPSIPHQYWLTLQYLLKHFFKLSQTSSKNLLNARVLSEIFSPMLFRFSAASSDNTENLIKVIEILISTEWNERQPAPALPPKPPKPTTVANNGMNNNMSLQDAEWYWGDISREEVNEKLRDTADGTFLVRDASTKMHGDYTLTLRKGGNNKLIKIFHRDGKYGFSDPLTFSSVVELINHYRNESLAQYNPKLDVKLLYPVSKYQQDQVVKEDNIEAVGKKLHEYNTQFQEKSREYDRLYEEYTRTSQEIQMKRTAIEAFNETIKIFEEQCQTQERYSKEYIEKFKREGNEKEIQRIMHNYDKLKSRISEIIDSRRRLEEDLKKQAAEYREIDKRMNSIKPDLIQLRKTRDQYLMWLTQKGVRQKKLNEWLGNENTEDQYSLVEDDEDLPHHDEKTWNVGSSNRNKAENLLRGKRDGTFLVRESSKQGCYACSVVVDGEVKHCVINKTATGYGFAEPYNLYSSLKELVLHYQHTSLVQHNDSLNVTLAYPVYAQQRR
Procedure: as §1, §2, §3

PC3-MM2 cells = assay: In vitro cell culture growth assay (MTS); assay type: cell-based; details: Homo sapiens, PC3MM2, 72 h, growth inhibition, three days after drug treatment
Procedure: (§4) Cell lines used were human adenocarcinoma (LoVo), pancreatic […], prostate (LNCap), breast (MDA468, MCF7), colon (HCT116), renal (HTB44 A498), and ovarian (OVCAR3) tumor cell lines. The tumor cells were plated in 96-well culture plates at approximately 3000 cells per well. One day following plating, various concentrations of PI3K inhibitors in DMSO were added to cells (final DMSO concentration in cell assays was 0.25%). Three days after drug treatment, viable cell densities were determined by cell mediated metabolic conversion of the dye MTS, a well-established indicator of cell proliferation in vitro. Cell growth assays were performed using kits purchased from Promega Corporation (Madison, Wis.), following the protocol provided by the vendor. Measuring absorbance at 490 nm generated the MTS assay results. Compound effect on cell proliferation was assessed relative to untreated control cell growth.

[1] = system: OVCAR3 ovarian tumor cell line; assay: In vitro cell culture growth assay (MTS); assay type: cell-based; details: Homo sapiens, OVCAR-3, 72 h, growth inhibition, three days after drug treatment
Procedure: as §4

[2] = system: human tumor xenograft models; details: cited from earlier work
mTOR enzymes = mTOR enzymes (Homo sapiens, UniProt P42345); details: read-out: mTOR enzymes IC50; literature value; cited from earlier work
[3] = system: acute lymphoblastic leukemia; details: NOS/SCID mouse; cited from earlier work

| SMILES | IC50 (human TOR (FLAG-TOR)) [nM] | IC50 (PI3K-gamma) [nM] | IC50 (PI3K-alpha) [nM] | IC50 (PC3-MM2 cells) [nM] | IC50 [1] [nM] | activity in human tumor xenograft models ([2]; I.P. dosing in mice, U87MG, PC3, MDA-MB-468, MDA-MB-435, HCT 116, SKOV3, IGROV-1) | tumor growth in mouse human xenograft cancer models ([2]; chronic oral administration, 400 mg/kg, A549, PC-3, WiDr) | IC50 (mTOR enzymes) [nM] | activity in human tumor xenograft models ([2]; prostrate (PC-3) and glioblastoma (U-87)) | activity in xenograft mouse model of acute lymphoblastic leukemia [3] |
| --- | --- | --- | --- | --- | --- | --- | --- | --- | --- | --- |
| COc1ccc2c(c1)c(/C=C1\Oc3cc(O)cc(O)c3C1=O)c1n2CCN(C)C1=O [Q, 10-[(Z)-(4,6-dihydroxy-3-oxo-1-benzofuran-2(3H)-ylidene)methyl]-8-methoxy-2-methyl-3,4-dihydropyrazino[1,2-a]indol-1(2H)-one] | 4 | 27 | 3 | 5050 | 3600 | – | – | – | – | – |
| Oc1cccc(-c2nc(N3CCOCC3)c3oc4ncccc4c3n2)c1 [Example P1103, 3-(4-(4-morpholinyl)pyrido[3′,2′:4,5]furo[3,2-d]pyrimidin-2-yl)phenol] | – | – | – | – | – | demonstrated activity | – | – | – | – |
| FC(F)c1nc2ccccc2n1-c1nc(N2CCOCC2)nc(N2CCOCC2)n1 [ZSTK474, 2-(2-difluoromethylbenzoimidazol-1-yl)-4,6-dimorpholino-1,3,5-triazine] | – | – | – | – | – | – | completely inhibited growth | > 10000 | – | – |
| COc1ccc2c(c1)c(/C=C1\Oc3cc(O)cc(O)c3C1=O)c1n2CCOC1=O [Example I, 10-[(Z)-(4,6-dihydroxy-3-oxo-1-benzofuran-2(3H)-ylidene)methyl]-8-methoxy-3,4-dihydro-1H-[1,4]oxazino[4,3-a]indol-1-one] | 24 | 9 | 1.1 | 5630 | – | – | – | – | – | – |
| COc1ccc2c(c1)c(/C=C1\Oc3cc(O)cc(O)c3C1=O)c1n2CCNC1=O [N, 10-[(Z)-(4,6-dihydroxy-3-oxo-1-benzofuran-2(3H)-ylidene)methyl]-8-methoxy-3,4-dihydropyrazino[1,2-a]indol-1(2H)-one] | < 32 | 24.5 | 2.5 | > 10000 | 4950 | – | – | – | – | – |
| Cn1c(=O)n(-c2ccc(C(C)(C)C#N)cc2)c2c3cc(-c4cnc5ccccc5c4)ccc3ncc21 [NVP-BEZ-235, 2-methyl-2-(4-(3-methyl-2-oxo-8-(quinolin-3-yl)-2,3-dihydro-1H-imidazo[4,5-c]quinolin-1-yl)phenyl)propanenitrile] | – | – | – | – | – | – | – | – | demonstrated activity | – |
| CO[C@H]1C[C@@H]2CC[C@@H](C)[C@@](O)(O2)C(=O)C(=O)N2CCCC[C@H]2C(=O)O[C@H]([C@H](C)C[C@@H]2CC[C@@H](OC(=O)C(C)(CO)CO)[C@H](OC)C2)CC(=O)[C@H](C)/C=C(\C)[C@@H](O)[C@@H](OC)C(=O)[C@H](C)C[C@H](C)/C=C/C=C/C=C/1C [Torisel] | – | – | – | – | – | – | – | – | – | active |
| COc1ccc2c(c1)c(/C=C1\Oc3cc(O)cc(O)c3C1=O)c1n2CCN(C)C1 [P, (2Z)-4,6-dihydroxy-2-[(8-methoxy-2-methyl-1,2,3,4-tetrahydropyrazino[1,2-a]indol-10-yl)methylene]-1-benzofuran-3(2H)-one] | 9 | 30.5 | 6 | 1610 | 1670 | – | – | – | – | – |

More lines, main results first:

| IC50 (human TOR (FLAG-TOR)) [nM] | IC50 (PI3K-gamma) [nM] | IC50 (PI3K-alpha) [nM] | IC50 (PC3-MM2 cells) [nM] | IC50 [1] [nM] | SMILES | activity in human tumor xenograft models ([2]; I.P. dosing in mice, U87MG, PC3, MDA-MB-468, MDA-MB-435, HCT 116, SKOV3, IGROV-1) | tumor growth in mouse human xenograft cancer models ([2]; chronic oral administration, 400 mg/kg, A549, PC-3, WiDr) | IC50 (mTOR enzymes) [nM] | activity in human tumor xenograft models ([2]; prostrate (PC-3) and glioblastoma (U-87)) | activity in xenograft mouse model of acute lymphoblastic leukemia [3] |
| --- | --- | --- | --- | --- | --- | --- | --- | --- | --- | --- |
| 9 | 116 | 5.5 | 2190 | 1620 | COc1ccc2c(c1)c(/C=C1\Oc3cc(O)cc(O)c3C1=O)c1n2CCNC1 [K, (2Z)-4,6-dihydroxy-2-[(8-methoxy-1,2,3,4-tetrahydropyrazino[1,2-a]indol-10-yl)methylene]-1-benzofuran-3(2H)-one] | – | – | – | – | – |
| 320 | 116 | 16.5 | 1510 | 780 | COc1ccc2c(c1)c(/C=C1\Oc3cc(O)ccc3C1=O)c1n2CCNC1 [L, (2Z)-6-hydroxy-2-[(8-methoxy-1,2,3,4-tetrahydropyrazino[1,2-a]indol-10-yl)methylene]-1-benzofuran-3(2H)-one] | – | – | – | – | – |
| 66 | 76 | 14 | 3400 | 3720 | COc1ccc2c(c1)c(/C=C1\Oc3cc(O)ccc3C1=O)c1n2CCC1 [O, (2Z)-6-hydroxy-2-[(7-methoxy-2,3-dihydro-1H-pyrrolo[1,2-a]indol-9-yl)methylene]-1-benzofuran-3(2H)-one] | – | – | – | – | – |
| < 32 | 57 | 4.5 | 1910 | 1000 | COc1ccc2c(c1)c(/C=C1\Oc3cc(O)cc(O)c3C1=O)c1n2CCOC1 [M, (2Z)-4,6-dihydroxy-2-[(8-methoxy-3,4-dihydro-1H-[1,4]oxazino[4,3-a]indol-10-yl)methylene]-1-benzofuran-3(2H)-one] | – | – | – | – | – |
| 114 | 76.5 | 21.5 | > 10000 | 5280 | COc1ccc2c(c1)c(/C=C1\Oc3cc(O)ccc3C1=O)c1n2CCOC1=O [J, 10-[(Z)-(6-hydroxy-3-oxo-1-benzofuran-2(3H)-ylidene)methyl]-8-methoxy-3,4-dihydro-1H-[1,4]oxazino[4,3-a]indol-1-one] | – | – | – | – | – |
